Literature values as cited in patent publication US20040038890A1, “Human voltage-gated potassium channel subunit” (priority 1998, published 2004).

Key:
[1] = system: potassium currents in rat pulmonary artery myocytes
[2] = system: Kv2.1 and Kv2.1/rKv9.3 complexes; settings: Kv2.1 compared with Kv2.1/rKv9.3
Kv2.1/rKv9.3 = Kv2.1/rKv9.3 (Rattus norvegicus, UniProt O88759+P15387); settings: Kv2.1/rKv9.3 versus Kv2.1 alone, Xenopus oocytes
Chain of Kv2.1/rKv9.3 (P15387 whole entry): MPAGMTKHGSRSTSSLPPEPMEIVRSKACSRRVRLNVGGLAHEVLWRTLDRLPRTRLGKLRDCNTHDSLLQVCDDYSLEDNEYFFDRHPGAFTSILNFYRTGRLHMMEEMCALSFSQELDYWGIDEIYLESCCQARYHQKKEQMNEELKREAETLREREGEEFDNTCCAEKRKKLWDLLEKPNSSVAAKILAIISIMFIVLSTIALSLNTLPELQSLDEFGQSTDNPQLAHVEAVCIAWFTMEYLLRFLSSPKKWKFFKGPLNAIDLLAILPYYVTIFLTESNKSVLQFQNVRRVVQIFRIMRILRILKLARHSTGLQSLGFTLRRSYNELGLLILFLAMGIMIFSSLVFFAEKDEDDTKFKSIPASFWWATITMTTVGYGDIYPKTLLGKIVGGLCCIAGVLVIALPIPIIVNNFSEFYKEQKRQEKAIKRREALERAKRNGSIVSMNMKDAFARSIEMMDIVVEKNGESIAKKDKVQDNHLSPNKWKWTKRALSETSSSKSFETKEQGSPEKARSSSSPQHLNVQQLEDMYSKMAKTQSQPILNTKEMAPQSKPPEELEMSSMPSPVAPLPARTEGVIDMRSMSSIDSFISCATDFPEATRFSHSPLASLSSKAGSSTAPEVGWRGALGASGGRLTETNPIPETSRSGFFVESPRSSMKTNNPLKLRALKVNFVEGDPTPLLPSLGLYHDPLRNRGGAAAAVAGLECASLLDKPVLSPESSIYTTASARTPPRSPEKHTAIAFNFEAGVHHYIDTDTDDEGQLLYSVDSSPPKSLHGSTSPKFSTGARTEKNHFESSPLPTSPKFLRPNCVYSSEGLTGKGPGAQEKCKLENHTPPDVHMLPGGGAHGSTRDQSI
Chain of Kv2.1/rKv9.3 (O88759 whole entry): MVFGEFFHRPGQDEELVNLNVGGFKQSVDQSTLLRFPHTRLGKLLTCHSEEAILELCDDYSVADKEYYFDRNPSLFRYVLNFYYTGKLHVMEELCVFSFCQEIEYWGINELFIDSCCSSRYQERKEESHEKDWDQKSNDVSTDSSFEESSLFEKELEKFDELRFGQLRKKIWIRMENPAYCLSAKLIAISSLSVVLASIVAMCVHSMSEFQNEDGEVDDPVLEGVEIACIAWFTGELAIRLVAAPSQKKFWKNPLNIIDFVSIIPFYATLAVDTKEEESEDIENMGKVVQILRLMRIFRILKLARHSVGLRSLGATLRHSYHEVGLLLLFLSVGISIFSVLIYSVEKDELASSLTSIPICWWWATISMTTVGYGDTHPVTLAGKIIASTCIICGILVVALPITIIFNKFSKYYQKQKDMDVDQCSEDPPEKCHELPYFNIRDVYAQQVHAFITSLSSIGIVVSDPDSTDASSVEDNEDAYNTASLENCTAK

Row | Molecule | effect on potassium currents [1] | sensitivity of Kv2.1 and Kv2.1/rKv9.3 complexes [2] | decrease in sensitivity of Kv2.1 when co-expressed with rKv9.3 (Kv2.1/rKv9.3)
1 | CCN[C@@H](C)Cc1cccc(C(F)(F)F)c1 [DFF, dex-fenfluramine] | inhibit potassium currents | similarly sensitive | –
2 | CC[N+](CC)(CC)CC.[Cl-] [TEA, tetraethylammonium chloride] | – | – | 3 fold
3 | aminorex fumarate | inhibit potassium currents | – | –
